# Values of other authors in patent publication US20230405025A1, “CANNABINOID-CONTAINING COMPOSITIONS AND USE FOR TREATING AND PREVENTING DISEASES” (priority 2020, published 2023).
# Tested on: presbyopic patient
compound,measurement,setting,value
"CC[C@@H]1C(=O)OC[C@@H]1Cc1cncn1C [Pilocarpine, pilocarpine]",Tolerability,"concentrations above 0.5%, side effects red eyes, ocular pain, brow ache, headache",not tolerated
same,Distance vision,"concentrations effective enough to improve reading ability, eye rendered myopic (Gilmartin et al., 1995)",significant decrease in the eye's distance vision
same,Effect on accommodation of the eye,topical concentrations below 0.5%,minimal effect in the accommodation of the eye
